Literature values as cited in patent publication US20060069069A1, “Methods and compositions for the administration of calcium chelators, bisphosponates and/or citrate compounds and their pharmaceutical uses” (Nanobac Pharmaceuticals, Inc., priority 2004, published 2006).

Tested on: bone resorption
Conditions: versus etidronate; both in vitro and in vivo

NCCCC(O)(P(=O)(O)O)P(=O)(O)O [alendronate]
potency relative to etidronate for the prevention of bone resorption: approximately 700 fold
